This is an account of results in ChEMBL document CHEMBL4251708, “Synthesis and Biological Screening of Pyrano[3,2-c]quinoline Analogues as Anti-inflammatory and Anticancer Agents” (ACS Med Chem Lett, 2018).

By inhibition is commonly meant the relative decrease from the control value, in per cent. Broadly, the IC50 is the midpoint of a concentration-inhibition curve.

Data set [1] has as its system THP-1. The data set can be described thus: Antiinflammatory activity in PMA-differentiated human THP1 cells assessed as inhibition of LPS-induced TNF-alpha production at 1 uM after 24 hrs by ELISA relative to control. The data set is classed as functional. The following applies: THP-1, 24 h. (ELISA stands for enzyme-linked immunosorbent assay.)
Data set [2] concerns THP-1. As to the kind of experiment: Antiinflammatory activity in PMA-differentiated human THP1 cells assessed as inhibition of LPS-induced TNF-alpha production at 10 uM after 24 hrs by ELISA relative to control. The data set is classed as functional. To be noted: THP-1, 24 h.
The subject of data set [3] is THP-1. The data set can be described thus: Antiinflammatory activity in PMA-differentiated human THP1 cells assessed as inhibition of LPS-induced IL-6 production at 1 uM after 24 hrs by ELISA relative to control. The data set is classed as functional. The following applies: THP-1, 24 h.
Data set [4] relates to THP-1. As to the kind of experiment: Antiinflammatory activity in PMA-differentiated human THP1 cells assessed as inhibition of LPS-induced IL-6 production at 10 uM after 24 hrs by ELISA relative to control. The following applies: THP-1, 24 h. Type of data set: functional.
Data set [5] has as its system MIA PaCa-2. The data set can be described thus: Antiproliferative activity against human MIAPaCa2 cells at 10 uM relative to control. Type of data set: functional.
Data set [6] relates to ACHN (Homo sapiens). The data set can be described thus: Antiproliferative activity against human ACHN cells at 1 uM relative to control.
Data set [7] has as its system ACHN (Homo sapiens). The data set can be described thus: Antiproliferative activity against human ACHN cells at 10 uM relative to control.
The test system of data set [8] is A-549 (Homo sapiens). The data set can be described thus: Antiproliferative activity against human A-549 cells at 10 uM relative to control.
Data set [9] relates to MDA-MB-231 (Homo sapiens). As to the kind of experiment: Antiproliferative activity against human MDA-MB-231 cells at 1 uM relative to control. To be noted: mda-mb-231, 1 µM.
Data set [10] relates to MIA PaCa-2 (Homo sapiens). The data set can be described thus: Antiproliferative activity against human MIA PaCa-2 cells at 1 uM relative to control.
The test system of data set [11] is THP-1 (Homo sapiens). As to the kind of experiment: Antiinflammatory activity in human THP1 cells assessed as inhibition of IL-6 production at 10 uM relative to control. More on the design: scale not given: the % may be the effect or the level left.
For data set [12], the system named is THP-1 (Homo sapiens). As to the kind of experiment: Antiinflammatory activity in human THP1 cells assessed as inhibition of TNF-alpha production at 10 uM relative to control. More on the design: scale not given: the % may be the effect or the level left.
In data set [13] the test system is MDA-MB-231 (Homo sapiens). The data set can be described thus: Antiproliferative activity against human MDA-MB-231 cells at 10 uM relative to control.
The test system of data set [14] is THP-1. As to the kind of experiment: Antiinflammatory activity in PMA-differentiated human THP1 cells assessed as inhibition of LPS-induced TNF-alpha production after 24 hrs by ELISA. The data set is classed as functional, cell-based. The following applies: THP-1, 24 h.
In data set [15] the test system is THP-1. The data set can be described thus: Antiinflammatory activity in PMA-differentiated human THP1 cells assessed as inhibition of LPS-induced IL-6 production after 24 hrs by ELISA. Type of data set: functional, cell-based. The following applies: THP-1, 24 h.
Data set [16] deals with THP-1. The data set can be described thus: Cytotoxicity against PMA-differentiated human THP1 cells assessed as reduction in cell viability after 4.5 hrs by MTS assay. The data set is classed as cell-based. The following applies: THP-1, 4.5 h. (In general: Tetrazolium assays rely on reduction of a dye to a coloured formazan, in cell work by metabolically active cells.)
Data set [17] has as its system ACHN. As to the kind of experiment: Antiproliferative activity against human ACHN cells after 48 hrs by propidium iodide staining based fluorometry. Type of data set: functional, cell-based.
Data set [18] relates to PANC-1. As to the kind of experiment: Antiproliferative activity against human PANC1 cells after 48 hrs by propidium iodide staining based fluorometry. Type of data set: functional, cell-based. To be noted: PANC-1, 48 h.
In data set [19] the test system is HCT-116. The data set can be described thus: Antiproliferative activity against human HCT116 cells after 48 hrs by propidium iodide staining based fluorometry. Type of data set: functional, cell-based. To be noted: HCT-116, 48 h.
The subject of data set [20] is NCI-H460. As to the kind of experiment: Antiproliferative activity against human H460 cells after 48 hrs by propidium iodide staining based fluorometry. The following applies: NCI-H460, 48 h. The data set is classed as functional, cell-based.
Data set [21] concerns Calu-1. The data set can be described thus: Antiproliferative activity against human Calu1 cells after 48 hrs by propidium iodide staining based fluorometry. The data set is classed as functional, cell-based. To be noted: Calu-1, 48 h.
The test system of data set [22] is PBMC. As to the kind of experiment: Antiinflammatory activity in human PBMC assessed as inhibition of LPS-induced TNF-alpha production incubated for 30 mins followed by LPS addition measured after 4.5 hrs by ELISA. The data set is classed as functional, cell-based.

In the case of `Cn1c(=O)c2c(c3ccccc31)OC(N)=C(C#N)C2c1ccc(F)cc1` (stereo not given), the inhibition at 1 µM in [1] and in data set [3] was 0% each time. In addition, the values for the inhibition at 10 µM in [2] and in data set [4] were 0% and 66%, respectively. Moreover, the Activity in data set [5] amounted to 45%; in data set [6], 27%; in [7] it was 50%; in data set [8] it was 22%; in data set [9], 0%; in data set [10] it was 16%. The Activity in data set [11] is given as 66%; in data set [12], 0%.

Regarding `Cn1c(=O)c2c(c3ccccc31)OC(N)=C(C#N)C2c1ccc([N+](=O)[O-])cc1` (stereo not given), the inhibition at 1 µM in data set [1] and in data set [3] was 0% throughout. In addition, the inhibition at 10 µM in [2] and in [4] was 0% in each case. The Activity turned out to be 64% in data set [5]; 9% in data set [6]; 75% in data set [7]; 77% in data set [8]; 0% in [9]; 15% in [10]. Further, the Activity is 0% in data set [11] and 27% in data set [12].

`COc1cccc(C2C(C#N)=C(N)Oc3c2c(=O)n(C)c2ccccc32)c1` (stereo not given): the inhibition at 1 µM in data set [1] and in data set [3] was 0% throughout. The inhibition at 10 µM turned out to be 0% in [2] and 70% in data set [4]. The Activity is 75% in data set [5]; 67% in [6]; 73% in [7]; 66% in [9]; 76% in data set [10]; 75% in data set [13]. Further, in data set [12], the Activity came out at 0%.

As to `Cn1c(=O)c2c(c3ccccc31)OC(N)=C(C#N)C2c1ccccc1[N+](=O)[O-]` (stereo not given), the inhibition at 1 µM in [1] and in data set [3] was 0% throughout. Moreover, the inhibition at 10 µM in [2] was 0%; in data set [4] it was 78%. Besides, the Activity amounted to 51% in data set [5]; 49% in data set [6]; 68% in data set [7]; 36% in data set [8]; 0% in data set [9]; 35% in data set [10]. In addition, the Activity turned out to be 78% in data set [11] and 36% in data set [12].

In the case of `Cn1c(=O)c2c(c3ccccc31)OC(N)=C(C#N)C2c1cccc(Oc2ccccc2)c1` (stereo not given), the figures for the inhibition at 1 µM in data set [1] and in data set [3] were 18% and 0%, respectively. Besides, the inhibition at 10 µM is 0% in [2] and 70% in data set [4]. The Activity in [5] is reported as 72%; in [6], 69%; in [8], 67%; in data set [9], 47%; in data set [10] it was 66%; in [13] it was 51%. Besides, the Activity in data set [11] came to 52%; in data set [12], 34%. For the same compound, the IC50 in data set [14] amounted to 0.2 µM; in data set [15] it was 0.2 µM; in [16], 11 µM; in data set [17] it was 3.4 µM; in [18], 4.7 µM; in data set [19], 5.1 µM. In addition, the concentration for half-maximal inhibition (IC50) in data set [20] worked out at 1.4 µM; in data set [21], 1.8 µM; in [22], 0.2 µM. Also, the inhibition entry in data set [22] was “Dose-dependent effect”.

Take `Cn1c(=O)c2c(c3ccccc31)OC(N)=C(C#N)C2c1ccc(Cl)cc1` (stereo not given): the inhibition at 1 µM in data set [1] and in [3] was 0% each time. Moreover, the results for the inhibition at 10 µM in [2] and in [4] were 0% and 75%, respectively. The Activity in data set [5] is 63%; in data set [6] it was 45%; in data set [7] it was 69%; in data set [9] it was 0%; in [10] it was 21%; in [11], 75%. In addition, the Activity in data set [12] is 42%.
